Patent publication US20230340440A1, “GENETIC MANIPULATION METHOD IN BACTERIA” (University of Washington, priority 2022, published 2023)

Key:
Format in all cases: cell-based, P. putida
J3 promoter = test: CRISPRa reporter gene activation, J3-BBa_J23117-mRFP; conditions: for activation of mRFP: FIG. 4
Description: Fluorescence measurements of reporter gene expression were carried out either by flow cytometry or plate reader. Single colonies from LB plates were inoculated in 500 µL of EZ-RDM (Teknova) supplemented with the appropriate antibiotics and grown in 96-deep-well plates at 30° C. with shaking overnight 225 rpm. For small-molecule induction, overnight cultures were diluted 100-fold into a new culture with appropriate antibiotics and inducers, then shaken overnight at 30° C., 225 rpm. For flow cytometry, overnight cultures were diluted 1:50 in Dulbecco’s phosphate-buffered saline (PBS) and analyzed on a MACSQuant VYB flow cytometer with the MACSQuantify 2.8 software (Miltenyi Biotec) using the methods and instruments settings as described (Dong et al., 2018. Synthetic CRISPR-Cas gene activators for transcriptional reprogramming in bacteria. Nat Commun 9, 2489). For plate reader measurements, 150 µL of overnight culture were transferred into a flat, clear-bottomed black 96-well plate. OD600 and fluorescence values were measured in a Biotek Synergy HTX plate reader and analyzed using the BioTek Gen5 2.07.17 software. For mRFP1 detection, the excitation wavelength was 540 nm and emission wavelength was 600 nm. For sfGFP detection, the excitation wavelength was 485 nm and the emission wavelength was 528 nm. Data were plotted using Prism (GraphPad).
Next, the 20 bp target sequence that is recognized by the scRNA was examined. The experiments described above were performed with the J1 promoter, which contains an array of 20 base target sites. An alternative promoter, termed J3, that has a different set of 20 base target sites was tested. […] Compared to the J1 promoter, where a 4-fold activation (J106 target site) was observed, the fold-activation with the J3 promoter increased to 34-fold (J306 target site) (FIG. 2D). For both J1 and J3, the CRISPRa-induced expression levels were similar. The large difference in fold-activation results from an unexpected difference in basal expression levels. The basal expression of J3-mRFP is 11-fold lower than that of J1-mRFP, which leads to much higher fold-activation. […]
With optimized expression levels and a delivery strategy for the CRISPRa system in P. putida in place, whether CRISPRa and CRISPRi can be used together to activate and repress multiple genes was tested. […] A dual scRNA/sgRNA cassette was inserted in this plasmid with a J306 scRNA for mRFP activation and an sgRNA that targets within the sfGFP open reading frame (ORF) for repression. […]

J3-GTPCH, J3-PTPS, J3-SR = test: biopterin pathway activation by CRISPRa, HPLC-MS; conditions: J3-SR (pBBR1-GmR), relative to off-target scRNA, FIG. 6D
J3-BBa_J23117-mvaES = test: mevalonate pathway activation by CRISPRa, GC-MS; conditions: 13-mvaES (pBBR1-GmR); relative to off-target scRNA; FIG. 7B
Description: For mevalonate production experiments, the GC-MS method was adapted from prior methods (Pfleger et al., 2007. Microbial sensors for small molecules: Development of a mevalonate biosensor. Metab. Eng. 9, 30-38). Single colonies from LB plates were inoculated in 500 µL of EZ-RDM (Teknova) supplemented with the appropriate antibiotics and grown in 96-deep-well plates at 30° C. with shaking overnight at 225 rpm. Overnight cultures were subcultured by 1:100 dilution into 3 mL of EZ-RDM media with 1% glucose as the carbon source, supplemented with the appropriate antibiotics, and shaken at 225 rpm for 72 hours at 30° C. After 72 hours, 560 µL of cell suspension was acidified with 140 µL of 0.5 M HCl and vortexed. 700 µL ethyl acetate was added and samples were then vortexed again vigorously for 3 minutes and centrifuged at maximum speed in a benchtop centrifuge (15,000 rcf) for 10 min. […] The temperature cycle started at 80° C. and was followed by a gradient of 20° C./min to 260° C., a second gradient of 40° C./min to 300° C., and a hold at 300° C. for 2 min. m/z = 71, the second most abundant peak corresponding to mevalonolactone, was used for quantitation (Pfleger et al., 2007. Microbial sensors for small molecules: Development of a mevalonate biosensor. Metab. Eng. 9, 30-38). […] The calculated concentration was adjusted by the addition of HCl. […]

## J306: scRNA, SEQ ID NO: 95, target TTGTGTCCAGAACGCTCCGT, J3 and J1(306) promoters, template strand, 81 to TSS (chemistry not given here)
J3 promoter; J3-mRFP (integrated), dual reporters genomically-integrated, FIG. 15A
  Fold-change: 3-fold
J3 promoter; J3-mRFP (pBBR1-GmR), dual mRFP/sfGFP reporter plasmid-bourne, FIG. 13
  Fold-change: 41-fold
J3 promoter; just a single scRNA delivered, weak mRFP/strong sfGFP dual-reporter plasmid
  activation of mRFP: 15 fold
J3 promoter; simultaneous CRISPRa/CRISPRi, dual-reporter plasmid with sfGFP-repressing sgRNA
  activation of mRFP: 6.6 fold
J3-GTPCH, J3-PTPS, J3-SR
  Fold-change, metabolite production: 5-fold
J3-BBa_J23117-mvaES
  Fold-change, metabolite production: >40-fold
